In US20160095843A1, “PYRAZOLOPYRROLIDINE DERIVATIVES AND THEIR USE IN THE TREATMENT OF DISEASE” (NOVARTIS AG, priority 2013, published 2016):

Legend:
[1] = system: MV-4-11 cells; assay: Cell growth inhibition assay (CellTiter-Glo), MV-4-11; assay type: cell-based; settings: Homo sapiens, MV4-11
In short: (§1)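 Cellular ATP (CellTiter-Glo luminescence) measured after 4 days at 37° C., 5% CO2 of compound exposure, top concentration 10 μM in 3-fold steps, 0.1% DMSO. Readings corrected for no-cell background and a day-0 plate, normalised to vehicle and medium wells; half-maximal and total growth inhibition from four-parameter curves.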

[2] = system: THP-1 cells; assay: Cell growth inhibition assay (CellTiter-Glo), THP-1; assay type: cell-based; settings: Homo sapiens
In short: as §1

[3] = system: K-562 cells; assay: Cell growth inhibition assay (CellTiter-Glo), K-562; assay type: cell-based, human; settings: Homo sapiens, K562
In short: as §1

[4] = target: T1, nuclear BRD4-NUT foci in HCC2494 NUT midline carcinoma cells (Homo sapiens, UniProt O60885+Q86Y26); assay: Nut-foci formation assay; assay type: cell-based; settings: 24 hours, NUT-foci per nucleus, read-out: HCS Brd4-NUT IC50
T1 construct: HCC2494 NUT midline carcinoma cells (expressing BRD4-NUT-fusion)
Protocol: HCC2494 NUT midline carcinoma cells (expressing BRD4-NUT-fusion) were obtained from the University of Texas Southwestern and cultured in RPMI-1640 medium containing 10% Foetal Calf Serum at 37° C. in a humidified 5% CO2 incubator.
Compound-mediated inhibition of BRD4 activity was monitored by quantification of the number and intensity of nuclear BRD4-NUT foci using automated immunofluorescence microscopy. Briefly, 5000 cells in 20 μL fresh medium were seeded into Poly-D-Lysine-precoated 384-well plates and incubated overnight at 37° C. and 5% CO2, followed by addition of 5 μl medium containing compound dilutions at 5-fold their final intended concentration. Dose-response effects were assessed by 3-fold serial dilutions of the test compound, starting at 10 μM. […] Assay plates were imaged using the appropriate filter sets on the Cellomics VTi automated fluorescence microscopy platform (ThermoFisher Scientific) and the population average of the number of NUT-foci per nucleus is quantified using the Cellomics Spot Detection BioApplication image analysis algorithm (ThermoFisher Scientific). The effect of a particular test compound concentration on NUT-foci number and intensity is expressed as percentage of the value obtained for cells treated with vehicle only (DMSO, 0.1% final concentration), which was set as 100. […]

GI50 [1]: 84 nM
GI50 [2]: 112 nM
GI50 [3]: 511 nM
IC50 [4]: 151 nM
SMILES: CNc1cc(N2C(=O)c3c(c(C)nn3C3CC3)C2c2ccc(Cl)cc2)nn2c(C)nnc12 (racemic) [Example 113, 4-(4-chlorophenyl)-1-cyclopropyl-3-methyl-5-(3-methyl-8-(methylamino)-[1,2,4]triazolo[4,3-b]pyridazin-6-yl)-4,5-dihydropyrrolo-[3,4-c]pyrazol-6(1H)-one]
IC (TGI) [1]: 0.127 µM
IC (TGI) [2]: 0.234 µM
IC (TGI) [3]: > 10 µM
